This note sets out measurements from patent US7208481B2, “Aminodiphosphonate apolipoprotein E modulators” (ILEX Products, Inc., priority 2002, dated 2007).

Entries after “also recorded” stand apart in the source; their conditions may differ.

One data set relates to rat plasma HDLc. The data set is described as follows: In vivo rat model: plasma HDL cholesterol after 5 days of oral treatment. The conditions noted are these: for Rat Plasma HDLc (% change): dose-response experiment, OFA rats, Day 5. As to the method: (§1) This model was validated by testing the hypocholesterolemic drug gemfibrozil (200 mg/kg) as reference compound.
(§2) […] Test compounds were given as a suspension in 20% Tween-80 supplemented with 0.5% carboxymethylcellulose. The control group received 1 ml vehicle alone. After a treatment period of 5 days, rats were weighed, sacrificed by decapitation under pentobarbital anesthesia after an overnight fast. Blood was collected on EDTA and plasma was used for analysis.
(§3) ApoE was quantified by an ELISA method using a goat anti-apolipoprotein E antibody. Briefly, a dilution to 1/200 of rat plasma was coated on microtiter plates. ApoE was recognized by the polyclonal antibody; the conjugate antibody (anti-goat IgG peroxidase) was then added for substrate biochemical recognition. Apolipoprotein E was expressed as % change from mean control value. Cholesterol was measured with a commercially available enzymatic kit. Results were expressed as % change from control group.

For data set [1], the system named is secretion of apoE by THP-1 cells. Put plainly: Secretion of apoE by THP-1 cells, apoE determined by ELISA. Conditions: reference compound for assay validation. Type of data set: cell-based, human. Here is the method:
The THP-1 cell line was derived from the peripheral blood of a child with acute monocytic leukaemia and were obtained from the European Collection of Animal Cell Cultures (ECACC, #88081201). […] The cells were grown as non-adherent cells in RPMI 1640 culture medium, 2 mM glutamine, 20 μM 2-mercaptoethanol. Fresh medium was added to maintain cell density between 2 and 9×10^5 cells/ml. Once a week, new cultures were initiated by inoculating 10 ml of medium with 2×10^6 cells in a 75 cm^2 plate. The plates were kept at 37° C. in a 5% CO2 atmosphere. For screening, cells were seeded in 24-well plates at the density of 2×10^5 cells per well. Phorbol-12-myristat-13-acetate (PMA) was added at 0 and 5 nM to initiate TBP-1 differentiation into adherent macrophage-like cells. Vehicles, reference compounds and test compounds were added simultaneously at concentrations varying from 50 μM and incubated for 72 hours. […]
Ninety-six well-microtiter plates were coated by incubating with a 5% gelatin solution from porcine skin, bloom 60 in 50 mM carbonate-bicarbonate buffer, pH9.6 at the concentration of 200 μl/well, for 2 hours at 37° C. The coating solution was carefully removed and the sample to be analyzed was added (100 μl/well) at the appropriate dilution. […] The absorbance at 492 nm versus 620 nm was read on a microplate photometer and the results were then converted in human apoE ng equivalent. […]

For the next data set, the system named is rat plasma apoE. Put plainly: In vivo rat model: plasma apoE by ELISA after 5 days of oral treatment. Here is the method:
Rats fed a normal diet are a convenient model recently proposed for the screening of apoE modulating compounds (Leininger-Muller & Siest, 1996, herein incorporated by reference).
as §1, §2, §3
For orientation: In an ELISA, binding on a coated surface is turned into a signal by an enzyme label.

The mark [2] stands for this setting: OFA rats, 200 mg/kg/day p.o. for 5 days, change from mean control value.
The mark [3] stands for this setting: OFA rats, 50, 100, 200 mg/kg p.o. for 5 days.
The mark [4] stands for this setting: rats fed a normal diet, 200 mg/kg/day for 5 days.

For `CC1=C(/C=C/C(C)=C/C=C/C(C)=C/C(=O)O)C(C)(C)CCC1` [ATRA, all-trans retinoic acid, reference compound], the “HDL cholesterol level in rats (effect in words)” value in the data set on rat plasma HDLc (rats, dose not given) is on record as “decrease”. Also, the “production of apoE by THP-1 cells (effect in words)” value in data set [1] was “decreased; also recorded: potent inhibitor”. Moreover, the “plasma level of apoE in rats (effect in words)” value with rat plasma apoE (rats, dose not given) is listed as “decrease”.

`COP(=O)(OC)C(Nc1ccccn1)P(=O)(OC)OC` [Compound 1, Tetramethyl N-(2-pyridyl)aminomethylenediphosphonate] had a melting point of 162 to 164 °C. Moreover, the “Rat Plasma apoE (% change)” value in the data set on rat plasma apoE (setting [2]) was “+69 % change”.

On to `CCOP(=O)(OCC)C(Nc1ccccn1)P(=O)(OCC)OCC` [Compound 2, Tetraethyl N-(2-pyridyl)aminomethylenediphosphonate], for which the “plasma HDL cholesterol (HDLc) level, dose dependence (in words)” value in the data set with rat plasma HDLc (setting [3]) is “increased in a dose-response way”. Besides, the “Rat Plasma HDLc (% change)” value in the data set with rat plasma HDLc (50 mg/kg/day p.o. for 5 days) is “+27 % change”; in the data set with rat plasma HDLc (100 mg/kg/day p.o. for 5 days) it was “+34 % change”; in the data set with rat plasma HDLc (200 mg/kg/day p.o. for 5 days), “+68 % change”. Also, the “Rat Plasma apoE (% change)” value in the data set on rat plasma apoE (setting [2]) was “+44 % change”; with rat plasma apoE (dose-response experiment, OFA rats, 50 mg/kg/day p.o. for 5 days, Day 5), “+38 % change”; with rat plasma apoE (dose-response experiment, OFA rats, 100 mg/kg/day p.o. for 5 days, Day 5), “+37 % change”; with rat plasma apoE (dose-response experiment, OFA rats, 200 mg/kg/day p.o. for 5 days, Day 5), “+62 % change”. Moreover, the “plasma apoE level, dose dependence (in words)” value with rat plasma apoE (setting [3]) is listed as “increased in a dose-response way”.

`CC(C)OP(=O)(OC(C)C)C(Nc1ccccn1)P(=O)(OC(C)C)OC(C)C` [Compound 3, Tetraisopropyl N-(2-pyridyl)aminomethylenediphosphonate] yielded a melting point of 98 to 100 °C. Also, in the data set on rat plasma apoE (po, 200 mg/kg/day, 120 h), the “Rat Plasma apoE (% change)” value is “+16 % change”.

Compound `CCOP(=O)(OCC)C(Nc1cnc2ccccc2c1)P(=O)(OCC)OCC` [Compound 9, Tetraethyl N-(3-quinolinyl)aminomethylenediphosphonate] showed a melting point of 156 to 158 °C.

As to `Cc1ccc(C)c(OCCCC(C)(C)C(=O)O)c1` [gemfibrozil, reference compound], the “HDL cholesterol increase in rats (model validation)” value with rat plasma HDLc (setting [4]) is recorded as “+42%”. Besides, the “apoE increase in rats (model validation)” value in the data set with rat plasma apoE (setting [4]) is given as “+75%”.

The melting point is the temperature of the solid-liquid transition.
